The experiment concerns the target T1, CCR2 (Homo sapiens, UniProt P41597).
T1 construct: host or cells: THP-1 human monocytic cells
T1 sequence (P41597 1-360 isoform P41597-2): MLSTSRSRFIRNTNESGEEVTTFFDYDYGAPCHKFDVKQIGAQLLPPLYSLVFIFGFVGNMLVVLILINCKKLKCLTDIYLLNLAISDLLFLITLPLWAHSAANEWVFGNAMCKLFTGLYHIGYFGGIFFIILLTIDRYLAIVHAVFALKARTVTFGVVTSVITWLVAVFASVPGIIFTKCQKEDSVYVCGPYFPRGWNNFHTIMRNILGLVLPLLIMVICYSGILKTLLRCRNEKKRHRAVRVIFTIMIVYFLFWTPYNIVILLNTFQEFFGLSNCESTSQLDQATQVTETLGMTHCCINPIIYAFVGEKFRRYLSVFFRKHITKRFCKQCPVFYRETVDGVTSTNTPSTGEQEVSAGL
As to the kind of experiment: MCP-1 Receptor Binding Assay in THP-1 Cells. The note with it: 0.5 nM 125I labeled MCP-1, 2 hours at 30° C., less polar isomer tested where stated, read-out: Inhibition of MCP-1 Binding IC50, CCR2 Binding. As for the experimental part:
MCP-1 Receptor Binding Assay in THP-1 Cells
Human monocytic cell line THP-1 cells were obtained from American Type Culture Collection (Manassas, Va., USA). The THP-1 cells were grown in RPMI-1640 (RPMI: Roswell Park Memorial Institute Medium-cell culture growth media) supplemented with 10% fetal bovine serum in a humidified 5% CO2 atmosphere at 37° C. The cell density was maintained […].
THP-1 (cells were incubated with 0.5 nM ^125I labeled MCP-1 (Perkin-Elmer Life Sciences, Inc. Boston, Mass.) in the presence of varying concentrations of either unlabeled MCP-1 (R & D Systems, Minneapolis, Minn.) or test compound for 2 hours at 30° C. in a 96 well plate. Cells were then harvested onto a filter plate, dried, and 20 μL of Microscint 20 was added to each well. Plates were counted in a TopCount NXT, Microplate Scintillation & Luminescence Counter (Perkin-Elmer Life Sciences, Inc. Boston, Mass.). Blank values (buffer only) were subtracted from all values and drug treated values were compared to vehicle treated values. 1 μM cold MCP-1 was used for nonspecific binding.
Where an IC50 value was not obtained for a particular compound, the percent inhibition is provided at a test concentration of 25 μM.

Structures can show the parent of a compound that is named as a salt.

In general, IC50 refers to the midpoint of a concentration-inhibition curve.

For `CCOC(=O)C1CCC(N2CC(NC(=O)CNc3nn(C)c4ccc(OC(F)(F)F)cc34)C2)CC1` (single isomer, unassigned) [Example 58], the IC50 was determined as 45 nM.
Turning to `CCC(O)[C@H]1CC[C@@H](N2CC(NC(=O)CNc3n[nH]c4ncc(C(F)(F)F)cc34)C2)CC1` (single isomer, unassigned) [Example 105], the IC50 came to 330 nM.
The value for `CCC(O)[C@H]1CC[C@H](N2CC(NC(=O)CNc3n[nH]c4ncc(C(F)(F)F)cc34)C2)CC1` (single isomer, unassigned) [Example 106] was 330 nM.
Regarding `O=C(CNc1noc2ccc(C(F)(F)F)cc12)NC1CN(C2CCC(c3ccc4c(c3)OCO4)CC2)C1` (stereo not drawn) [Example 1, N-[1-(4-Benzo[1,3]dioxol-5-yl-cyclohexyl)-azetidin-3-yl]-2-(5-trifluoromethyl-benzo[d]isoxazol-3-ylamino)-acetamide], the IC50 came out at 36 nM.
Regarding `COc1ccc(C2(O)CCC(N3CC(NC(=O)CNc4noc5ccc(C(F)(F)F)cc45)C3)CC2)cn1` (stereo not drawn) [Example 2, N-{1-[4-Hydroxy-4-(6-methoxy-pyridin-3-yl)-cyclohexyl]-azetidin-3-yl}-2-(5-trifluoromethyl-benzo[d]isoxazol-3-ylamino)-acetamide], the IC50 came to 23 nM.
Turning to `O=C(CNc1noc2ccc(C(F)(F)F)cc12)NC1CN(C2CCC(O)(c3cncs3)CC2)C1` (stereo not drawn) [Example 3, N-[1-(4-Hydroxy-4-thiazol-5-yl-cyclohexyl)-azetidin-3-yl]-2-(5-trifluoromethyl-benzo[d]isoxazol-3-ylamino)-acetamide], the IC50 is 31 nM.
`O=C(CNc1noc2ccc(C(F)(F)F)cc12)NC1CN(C2CCC(O)(c3nccs3)CC2)C1` (stereo not drawn) [Example 4, N-[1-(4-Hydroxy-4-thiazol-2-yl-cyclohexyl)-azetidin-3-yl]-2-(5-trifluoromethyl-benzo[d]isoxazol-3-ylamino)-acetamide]: the IC50 stood at 31 nM.
The value for `O=C(CNc1noc2ccc(C(F)(F)F)cc12)NC1CN(C2CCC(C3CCCCC3)CC2)C1` (stereo not drawn) [Example 5, N-(1-Bicyclohexyl-4-yl-azetidin-3-yl)-2-(5-trifluoromethyl-benzo[d]isoxazol-3-ylamino)-acetamide] was 330 nM; that for `CCOC(=O)C1CCC(N2CC(NC(=O)CNc3noc4ccc(C(F)(F)F)cc34)C2)CC1` (stereo not drawn) [Example 6, 4-{3-[2-(5-Trifluoromethyl-benzo[d]isoxazol-3-ylamino)-acetylamino]-azetidin-1-yl}-cyclohexanecarboxylic acid ethyl ester] was 29 nM.
As to `CC(C)C1CCC(N2CC(NC(=O)CNc3noc4ccc(C(F)(F)F)cc34)C2)CC1` (stereo not drawn) [Example 7, N-[1-(4-Isopropyl-cyclohexyl)-azetidin-3-yl]-2-(5-trifluoromethyl-benzo[d]isoxazol-3-ylamino)-acetamide], the IC50 stood at 170 nM.
As for `CC(C)(C)[Si](C)(C)OC1CCC(N2CC(NC(=O)CNc3noc4ccc(C(F)(F)F)cc34)C2)CC1` (stereo not drawn) [Example 8, N-{1-[4-(tert-Butyl-dimethyl-silanyloxy)-cyclohexyl]-azetidin-3-yl}-2-(5-trifluoromethyl-benzo[d]isoxazol-3-ylamino)-acetamide], the IC50 was 7700 nM.
For `O=C(CNc1noc2ccc(C(F)(F)F)cc12)NC1CN(C2CCC(O)CC2)C1` (stereo not drawn) [Example 9, N-[1-(4-Hydroxy-cyclohexyl)-azetidin-3-yl]-2-(5-trifluoromethyl-benzo[d]isoxazol-3-ylamino)-acetamide], the IC50 is 770 nM.
For `CC(C)(C)OC(=O)NC1CCC(N2CC(NC(=O)CNc3noc4ccc(C(F)(F)F)cc34)C2)CC1` (stereo not drawn) [Example 10, (4-{3-[2-(5-Trifluoromethyl-benzo[d]isoxazol-3-ylamino)-acetylamino]-azetidin-1-yl}-cyclohexyl)-carbamic acid tert-butyl ester], the IC50 was determined as 750 nM.
For `NC1CCC(N2CC(NC(=O)CNc3noc4ccc(C(F)(F)F)cc34)C2)CC1` (stereo not drawn) [Example 11, N-[1-(4-Amino-cyclohexyl)-azetidin-3-yl]-2-(5-trifluoromethyl-benzo[d]isoxazol-3-ylamino)-acetamide TFA salt], the IC50 was found to be 2900 nM.
As for `CCC1CCC(N2CC(NC(=O)CNc3noc4ccc(C(F)(F)F)cc34)C2)CC1` (stereo not drawn) [Example 12, N-[1-(4-Ethyl-cyclohexyl)-azetidin-3-yl]-2-(5-trifluoromethyl-benzo[d]isoxazol-3-ylamino)-acetamide], the IC50 was 390 nM.
Turning to `N#CC1CCC(N2CC(NC(=O)CNc3noc4ccc(C(F)(F)F)cc34)C2)CC1` (stereo not drawn) [Example 13, N-[1-(4-Cyano-cyclohexyl)-azetidin-3-yl]-2-(5-trifluoromethyl-benzo[d]isoxazol-3-ylamino)-acetamide], the IC50 came out at 450 nM.
For `CCCC1CCC(N2CC(NC(=O)CNc3noc4ccc(C(F)(F)F)cc34)C2)CC1` (stereo not drawn) [Example 14, N-[1-(4-Propyl-cyclohexyl)-azetidin-3-yl]-2-(5-trifluoromethyl-benzo[d]isoxazol-3-ylamino)-acetamide], the IC50 came out at 360 nM.
With `O=C(CNc1noc2ccc(OC(F)(F)F)cc12)NC1CN(C2CCC(c3ccc4c(c3)OCO4)CC2)C1` (stereo not drawn) [Example 15, N-[1-(4-Benzo[1,3]dioxol-5-yl-cyclohexyl)-azetidin-3-yl]-2-(5-trifluoromethoxy-benzo[d]isoxazol-3-ylamino)-acetamide], the IC50 was 10 nM.
Regarding `CCOC(=O)C1CCC(N2CC(NC(=O)CNc3noc4ccc(OC(F)(F)F)cc34)C2)CC1` (stereo not drawn) [Example 16, 4-{3-[2-(5-Trifluoromethoxy-benzo[d]isoxazol-3-ylamino)-acetylamino]-azetidin-1-yl}-cyclohexanecarboxylic acid ethyl ester], the IC50 was 71 nM.
For the compound `CC(C)C1CCC(N2CC(NC(=O)CNc3noc4ccc(OC(F)(F)F)cc34)C2)CC1` (stereo not drawn) [Example 17, N-[1-(4-Isopropyl-cyclohexyl)-azetidin-3-yl]-2-(5-trifluoromethoxy-benzo[d]isoxazol-3-ylamino)-acetamide], the IC50 is 750 nM.
On to `COc1ccc(C2(O)CCC(N3CC(NC(=O)CNc4nn(C)c5ccc(C(F)(F)F)cc45)C3)CC2)cn1` (stereo not drawn) [Example 18, N-{1-[4-Hydroxy-4-(6-methoxy-pyridin-3-yl)-cyclohexyl]-azetidin-3-yl}-2-(1-methyl-5-trifluoromethyl-1H-indazol-3-ylamino)-acetamide], for which the IC50 was 9.4 nM.
Under `Cn1nc(NCC(=O)NC2CN(C3CCC(O)(c4cccnc4)CC3)C2)c2cc(C(F)(F)F)ccc21` (stereo not drawn) [Example 19, N-[1-(4-Hydroxy-4-pyridin-3-yl-cyclohexyl)-azetidin-3-yl]-2-(1-methyl-5-trifluoromethyl-1H-indazol-3-ylamino)-acetamide] stands 56 nM; under `CN(C)c1cccc(C2(O)CCC(N3CC(NC(=O)CNc4nn(C)c5ccc(C(F)(F)F)cc45)C3)CC2)c1` (stereo not drawn) [Example 20, N-{1-[4-(3-Dimethylamino-phenyl)-4-hydroxy-cyclohexyl]-azetidin-3-yl}-2-(1-methyl-5-trifluoromethyl-1H-indazol-3-ylamino)-acetamide], 4.8 nM.
In the case of `Cn1nc(NCC(=O)NC2CN(C3CCC(O)(c4cncs4)CC3)C2)c2cc(C(F)(F)F)ccc21` (stereo not drawn) [Example 21, N-[1-(4-Hydroxy-4-thiazol-5-yl-cyclohexyl)-azetidin-3-yl]-2-(1-methyl-5-trifluoromethyl-1H-indazol-3-ylamino)-acetamide], the IC50 is 28 nM.

Source of the values: patent publication US8436023B2, “Cyclohexyl-azetidinyl antagonists of CCR2” (Janssen Pharmaceutica N.V., priority 2010, dated 2013).
